Measured values as given in ChEMBL document CHEMBL5665443, “Enzyme Inhibitor Single Concentration assay results for EUbOPEN Chemogenomics Library” (2024).

Key:
[1] = biological target: Methyl-CpG-binding domain protein 4 (Homo sapiens) (UniProt O95243); conditions: Hit No;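 note: MBD4 activity read as fluorescence at 594 nm from cleavage and release of a quenched duplex DNA oligonucleotide, with APE1 coupled to incise the strand and raise turnover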
[2] = biological target: T1, Adenine DNA glycosylase (Homo sapiens) (UniProt Q9UIF7); conditions: Hit No;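 note: human MUTYH activity read as 594 nm fluorescence from cleavage and release of a quenched DNA duplex, coupled with APE1 for strand incision, lower signal meaning inhibition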
T1 sequence (whole entry): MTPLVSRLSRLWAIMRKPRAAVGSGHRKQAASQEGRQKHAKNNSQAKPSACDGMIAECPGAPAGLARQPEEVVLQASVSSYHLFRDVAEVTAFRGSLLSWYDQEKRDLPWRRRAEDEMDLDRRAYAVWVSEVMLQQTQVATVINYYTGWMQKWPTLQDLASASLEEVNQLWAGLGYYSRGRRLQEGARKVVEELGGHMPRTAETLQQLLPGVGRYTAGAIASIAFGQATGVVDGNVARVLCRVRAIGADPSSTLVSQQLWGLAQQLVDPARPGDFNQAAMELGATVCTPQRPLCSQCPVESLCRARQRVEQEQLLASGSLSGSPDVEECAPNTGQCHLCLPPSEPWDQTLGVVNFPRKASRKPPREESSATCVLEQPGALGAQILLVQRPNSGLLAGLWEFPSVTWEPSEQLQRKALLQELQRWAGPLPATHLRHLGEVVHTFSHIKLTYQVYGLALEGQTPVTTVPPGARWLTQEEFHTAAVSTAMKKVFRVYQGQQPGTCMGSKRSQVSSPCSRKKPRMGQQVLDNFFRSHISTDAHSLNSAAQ

[3] = biological target: Endonuclease 8-like 1 (Homo sapiens) (UniProt Q96FI4); conditions: Hit No;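 note: fluorescence at 594 nm from quenched duplex DNA oligonucleotides released by NEIL1 cleavage and strand separation, reported as reduction of this enzyme activity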
[4] = biological target: T2, Endonuclease 8-like 2 (Homo sapiens) (UniProt Q969S2);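 note: fluorescence at 594 nm reports NEIL2 cutting and release of a quenched double-stranded DNA oligo substrate, reduced signal read as inhibition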
T2 sequence (whole entry): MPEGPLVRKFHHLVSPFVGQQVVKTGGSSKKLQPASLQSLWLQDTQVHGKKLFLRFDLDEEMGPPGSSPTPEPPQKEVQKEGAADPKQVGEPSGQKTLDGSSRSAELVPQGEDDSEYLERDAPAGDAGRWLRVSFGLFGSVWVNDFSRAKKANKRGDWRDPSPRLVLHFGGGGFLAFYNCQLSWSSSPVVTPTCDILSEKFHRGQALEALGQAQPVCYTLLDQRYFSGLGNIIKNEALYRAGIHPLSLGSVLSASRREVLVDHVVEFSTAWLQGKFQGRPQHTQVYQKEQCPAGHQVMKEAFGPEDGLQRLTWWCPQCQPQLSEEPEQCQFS

[5] = biological target: T3, Endonuclease III-like protein 1 (Homo sapiens) (UniProt P78549); conditions: Hit No;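 note: enzyme assay tracking NTHL1 cutting and release of a quenched double-stranded DNA oligo substrate, read as fluorescence at 594 nm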
T3 sequence (whole entry): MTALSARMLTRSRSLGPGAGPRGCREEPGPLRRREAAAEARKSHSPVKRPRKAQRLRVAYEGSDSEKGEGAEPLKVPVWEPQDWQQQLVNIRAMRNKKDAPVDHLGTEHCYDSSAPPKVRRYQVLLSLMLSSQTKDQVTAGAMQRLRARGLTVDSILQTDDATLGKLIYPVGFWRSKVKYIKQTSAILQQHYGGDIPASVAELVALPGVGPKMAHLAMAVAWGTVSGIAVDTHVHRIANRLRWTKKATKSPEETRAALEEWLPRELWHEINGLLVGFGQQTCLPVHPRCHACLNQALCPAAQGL

[6] = biological target: N-glycosylase/DNA lyase (Homo sapiens) (UniProt O15527);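 note: OGG1 cleavage of a quenched duplex DNA oligonucleotide, coupled to APE1 for strand incision, read as fluorescence at 594 nm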
[7] = biological target: T4, Single-strand selective monofunctional uracil DNA glycosylase (Homo sapiens) (UniProt Q53HV7); conditions: Hit No;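 note: enzymatic SMUG1 assay coupled with APE1, reading fluorescence at 594 nm released when a quenched double-stranded DNA oligonucleotide substrate is cleaved and separated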
T4 sequence (whole entry): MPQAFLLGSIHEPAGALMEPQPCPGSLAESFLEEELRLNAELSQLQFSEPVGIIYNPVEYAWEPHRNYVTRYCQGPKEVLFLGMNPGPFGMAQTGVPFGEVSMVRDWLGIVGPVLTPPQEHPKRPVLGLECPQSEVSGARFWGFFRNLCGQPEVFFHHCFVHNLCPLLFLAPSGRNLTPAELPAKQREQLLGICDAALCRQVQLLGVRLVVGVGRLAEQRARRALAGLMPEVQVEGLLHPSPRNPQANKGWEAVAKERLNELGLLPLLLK

[8] = biological target: G/T mismatch-specific thymine DNA glycosylase (Homo sapiens) (UniProt Q13569); conditions: Hit No;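 note: human TDG cleavage of quenched duplex DNA oligonucleotides coupled to APE1, strand release read as fluorescence at 594 nm, inhibition of TDG activity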
[9] = biological target: Uracil-DNA glycosylase (Homo sapiens) (UniProt P13051); conditions: Hit No;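 note: UNG excision on a quenched double-stranded DNA oligo probe, with APE1 added for strand incision and turnover, read as fluorescence at 594 nm as strands separate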
[10] = Compound Concentration 10.0 uM, Hit No
[11] = Compound Concentration 10.0 uM, Hit Yes
[12] = Compound Concentration 1.0 uM, Hit No

Chain of Uracil-DNA glycosylase (Homo sapiens) (P13051 whole entry): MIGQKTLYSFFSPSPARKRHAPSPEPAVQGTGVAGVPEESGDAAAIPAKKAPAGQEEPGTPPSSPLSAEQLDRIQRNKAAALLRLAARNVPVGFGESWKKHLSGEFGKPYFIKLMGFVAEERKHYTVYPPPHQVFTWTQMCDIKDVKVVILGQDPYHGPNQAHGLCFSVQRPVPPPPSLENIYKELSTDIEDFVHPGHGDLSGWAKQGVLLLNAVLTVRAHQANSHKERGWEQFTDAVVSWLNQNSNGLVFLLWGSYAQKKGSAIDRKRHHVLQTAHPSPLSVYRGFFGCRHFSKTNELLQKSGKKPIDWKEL
Chain of Endonuclease 8-like 1 (Homo sapiens) (Q96FI4 whole entry): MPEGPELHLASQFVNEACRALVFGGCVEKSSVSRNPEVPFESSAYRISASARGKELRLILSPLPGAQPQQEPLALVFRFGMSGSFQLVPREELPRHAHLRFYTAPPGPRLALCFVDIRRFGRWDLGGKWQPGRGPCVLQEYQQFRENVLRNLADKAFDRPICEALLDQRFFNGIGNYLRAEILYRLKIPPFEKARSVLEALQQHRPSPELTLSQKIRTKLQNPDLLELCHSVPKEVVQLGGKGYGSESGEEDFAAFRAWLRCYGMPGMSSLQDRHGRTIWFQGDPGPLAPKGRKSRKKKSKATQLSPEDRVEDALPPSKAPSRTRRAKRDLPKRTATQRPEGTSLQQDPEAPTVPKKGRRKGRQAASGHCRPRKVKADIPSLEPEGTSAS
Chain of Methyl-CpG-binding domain protein 4 (Homo sapiens) (O95243 whole entry, the tested form may be a part): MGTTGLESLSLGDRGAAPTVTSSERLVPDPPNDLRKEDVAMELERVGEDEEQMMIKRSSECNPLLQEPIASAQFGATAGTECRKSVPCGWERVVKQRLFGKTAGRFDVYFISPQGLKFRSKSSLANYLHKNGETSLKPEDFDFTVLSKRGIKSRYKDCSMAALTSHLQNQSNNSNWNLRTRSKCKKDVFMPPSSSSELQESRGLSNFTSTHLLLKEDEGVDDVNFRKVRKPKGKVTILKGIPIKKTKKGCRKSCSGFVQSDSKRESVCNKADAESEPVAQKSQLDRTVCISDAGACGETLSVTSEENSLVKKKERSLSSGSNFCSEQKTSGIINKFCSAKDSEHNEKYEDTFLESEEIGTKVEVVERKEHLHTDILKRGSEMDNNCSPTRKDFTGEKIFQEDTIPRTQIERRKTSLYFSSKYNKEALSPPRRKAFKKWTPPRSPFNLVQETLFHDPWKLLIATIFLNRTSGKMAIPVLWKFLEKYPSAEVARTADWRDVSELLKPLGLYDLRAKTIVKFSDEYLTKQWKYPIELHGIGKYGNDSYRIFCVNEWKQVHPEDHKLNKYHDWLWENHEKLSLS
Chain of N-glycosylase/DNA lyase (Homo sapiens) (O15527 whole entry): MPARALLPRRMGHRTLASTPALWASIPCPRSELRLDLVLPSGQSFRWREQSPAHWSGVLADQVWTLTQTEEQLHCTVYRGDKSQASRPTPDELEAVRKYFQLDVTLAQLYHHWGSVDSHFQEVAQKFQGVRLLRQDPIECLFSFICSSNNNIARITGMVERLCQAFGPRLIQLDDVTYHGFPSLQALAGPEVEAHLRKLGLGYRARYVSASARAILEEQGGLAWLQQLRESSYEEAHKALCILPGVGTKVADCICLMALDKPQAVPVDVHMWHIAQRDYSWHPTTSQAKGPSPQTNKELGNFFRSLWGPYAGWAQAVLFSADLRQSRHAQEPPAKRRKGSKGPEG
Chain of G/T mismatch-specific thymine DNA glycosylase (Homo sapiens) (Q13569 whole entry): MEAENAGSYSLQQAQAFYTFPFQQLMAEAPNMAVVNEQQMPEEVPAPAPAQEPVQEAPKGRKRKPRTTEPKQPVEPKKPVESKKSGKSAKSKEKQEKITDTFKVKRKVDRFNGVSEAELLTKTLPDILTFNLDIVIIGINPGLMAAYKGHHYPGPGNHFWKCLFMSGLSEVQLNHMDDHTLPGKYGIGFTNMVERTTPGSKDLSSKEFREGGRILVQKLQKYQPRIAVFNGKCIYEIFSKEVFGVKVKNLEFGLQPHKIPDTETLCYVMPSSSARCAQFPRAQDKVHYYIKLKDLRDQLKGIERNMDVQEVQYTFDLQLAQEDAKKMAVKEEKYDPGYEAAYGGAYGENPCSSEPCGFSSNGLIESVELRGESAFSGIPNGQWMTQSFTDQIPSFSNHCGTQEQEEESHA

Row | SMILES | inhibition ([1]; Compound Concentration 10.0 uM) | inhibition ([2]; Compound Concentration 10.0 uM) | inhibition ([3]; Compound Concentration 10.0 uM) | inhibition [4, 10] | inhibition ([5]; Compound Concentration 10.0 uM) | inhibition [6, 10] | inhibition ([7]; Compound Concentration 10.0 uM) | inhibition ([8]; Compound Concentration 10.0 uM) | inhibition ([9]; Compound Concentration 10.0 uM) | inhibition [4, 11] | inhibition ([1]; Compound Concentration 1.0 uM) | inhibition ([2]; Compound Concentration 1.0 uM) | inhibition ([3]; Compound Concentration 1.0 uM) | inhibition [4, 12] | inhibition ([5]; Compound Concentration 1.0 uM) | inhibition [6, 12] | inhibition ([7]; Compound Concentration 1.0 uM) | inhibition ([8]; Compound Concentration 1.0 uM) | inhibition ([9]; Compound Concentration 1.0 uM) | inhibition [6, 11]
1 | CCCCN(Cc1ccccc1)C(=O)c1ccc(S(=O)(=O)Nc2ccccc2)cc1 | -4.89% | 28.5% | -9.37% | -10% | 2.88% | 15.6% | 26.3% | 61.1% | 2.05% | – | – | – | – | – | – | – | – | – | – | –
2 | CCOC(=O)C1Cc2ccccc2CN1C(=O)c1ccc(SC)s1 (stereo not drawn) | 59.4% | -2.13% | -1.35% | 4.36% | 1.34% | 13.5% | 19.5% | 98.9% | 0.734% | – | – | – | – | – | – | – | – | – | – | –
3 | COc1cc2nc(N3CCN(C(=O)COc4c(OC)cccc4C(C)C)CC3)nc(N)c2cc1OC | -7.62% | -1.51% | 10.1% | – | 17.9% | -9.97% | -5.21% | 4.22% | 3.87% | 50.6% | – | – | – | – | – | – | – | – | – | –
4 | O=C(N[C@@H]1C2CCN(CC2)[C@H]1Cc1cccnc1)c1cc2ccccc2o1 | -7.25% | -1.82% | 5.2% | 1.94% | 27.8% | -7.23% | -7.47% | -0.849% | -1.31% | – | – | – | – | – | – | – | – | – | – | –
5 | O=c1[nH]c2ccccc2n1CCCN1CCN(C(c2ccccc2)c2ccccc2)CC1 | 57.5% | 1.43% | -7.26% | 5.38% | -3.26% | 10.8% | 20.2% | 97.2% | 4.47% | – | – | – | – | – | – | – | – | – | – | –
6 | C[C@]1(O)C[C@@H](c2nc(-c3ccc4ccc(-c5ccccc5)nc4c3)c3c(N)nccn32)C1 | 2.7% | 25.7% | 4.89% | 12.6% | 10.6% | -7.95% | 18.4% | 57.9% | 7.32% | – | – | – | – | – | – | – | – | – | – | –
7 | COc1ncc(-c2ccc3nccc(-c4ccnnc4)c3c2)cc1NS(=O)(=O)c1ccc(F)cc1F | – | – | – | – | – | – | – | – | – | – | 24% | 13.2% | -9.77% | 15.6% | 9.15% | 1.04% | -0.754% | 51.7% | -3.82% | –
8 | Fc1ccc(-c2c3cccc(C(F)(F)F)c3nn2Cc2ccc(F)cc2Cl)cc1 | 53.9% | 1.43% | -7.41% | -0.489% | -1.29% | 8% | 12.2% | 53.1% | 4.08% | – | – | – | – | – | – | – | – | – | – | –
9 | Cc1cccc(-c2[nH]c(CNc3ccccc3F)nc2-c2ccc3ncnn3c2)n1 | – | – | – | – | – | – | – | – | – | – | 12.7% | 6.74% | -2.11% | 6.16% | -6.89% | 4.54% | -5.72% | 35.6% | -5.91% | –
10 | Cc1cn([C@@H](C)CC#N)c(=O)c2cc(Cn3nc(C(F)F)cc3Cl)nn12 | 56.2% | 0.387% | -0.442% | 0.0213% | 5.29% | 9.38% | 19.8% | 99.3% | 2.85% | – | – | – | – | – | – | – | – | – | – | –
11 | CC(C)NC(=O)N1CC[C@H](NC2=Nc3cc(F)ccc3N(CC(F)F)c3ccc(Cl)cc32)C1 | 0.374% | 13.1% | -1.58% | -0.0337% | 4.27% | -3.5% | 26.7% | 62.4% | 8.59% | – | – | – | – | – | – | – | – | – | – | –
12 | C=C1/C(=C\C=C2/CCC[C@]3(C)[C@@H]([C@H](C)CCCC(C)(C)O)CC[C@@H]23)C[C@@H](O)C[C@@H]1O | 57% | -4.04% | -6.8% | -1.25% | -8.52% | 10.5% | 0.349% | 75.3% | -0.617% | – | – | – | – | – | – | – | – | – | – | –
13 | Cc1cc(SCc2sc(-c3ccc(C(F)(F)F)cc3)nc2C)ccc1OCC(=O)O | 60% | 14.6% | -2.11% | 1.55% | 17.8% | 62.7% | 18.5% | 98.5% | -0.945% | – | – | – | – | – | – | – | – | – | – | –
14 | CC[C@H](C)C(=O)O[C@H]1C[C@@H](C)C=C2C=C[C@H](C)[C@H](CC[C@@H]3C[C@@H](O)CC(=O)O3)[C@H]21 | 71.5% | 12.1% | -4.68% | 4.61% | 5.94% | 11.4% | 15.8% | 49.6% | 8.04% | – | – | – | – | – | – | – | – | – | – | –
15 | CCc1ccc(N(CC(C)C)S(=O)(=O)c2ccc(OCC3CCOCC3)c(CO)c2)cc1 | 69.4% | 7% | -7.41% | -1.25% | -1.95% | 9.77% | 18.3% | 98.5% | 5.13% | – | – | – | – | – | – | – | – | – | – | –
16 | CNC(=O)c1cc(C(=O)N[C@H]2[C@@H]3COC[C@@H]32)cc2c1O[C@@H](CF)[C@@H]2c1ccccc1 | 54.8% | -6.61% | 6.68% | 8.44% | -3.92% | 6.72% | 8.28% | 52.5% | 4.27% | – | – | – | – | – | – | – | – | – | – | –
17 | Cc1ccccc1Oc1cc(-n2c(=O)cc(C(F)(F)F)[nH]c2=O)c2ccccc2c1Cl | 68.2% | 0.715% | 7.74% | -1.25% | -1.29% | 50.6% | 29.1% | 54.4% | -2.65% | – | – | – | – | – | – | – | – | – | – | –
18 | O=C(Nc1cccnc1)c1cc(-c2ccnc(F)c2)ccc1OCc1ccccc1 | 20.7% | 3.77% | -5.94% | -3.53% | 4.27% | 6.84% | 25.3% | 52.5% | 2.47% | – | – | – | – | – | – | – | – | – | – | –
19 | CCC(=N\O)/C(C)=C/c1ccc(F)c(C)c1 | 64.7% | -0.87% | -2.41% | 0.276% | -5.23% | 16.2% | 22.6% | 41.4% | 3.87% | – | – | – | – | – | – | – | – | – | – | –
20 | CN1CCN(C(=O)c2ccc3cc2OCCOCCNc2ccn4ncc-3c4n2)CC1 | 17.6% | -5.82% | 1.85% | -5.69% | -5.49% | 2.08% | 13.6% | 38.5% | 1.81% | – | – | – | – | – | – | – | – | – | – | –
21 | C=C(C)[C@H]1CN[C@H](C(=O)O)[C@H]1CC(=O)O | 2.41% | 8.87% | -4.88% | -3.66% | -1.08% | -6.14% | -0.636% | -2.38% | -5.09% | – | – | – | – | – | – | – | – | – | – | –
22 | CC(C)c1onc(-c2c(Cl)cccc2Cl)c1COc1ccc(/C=C/c2cccc(C(=O)O)c2)c(Cl)c1 | 58.8% | 0.66% | -5.29% | -6.36% | 12.5% | – | 19.5% | 100% | 4.8% | – | – | – | – | – | – | – | – | – | – | 103%
